From patent US20260216239A1 (Arizona Board of Regents on Behalf of the University of …, priority 2020, published 2026)
Entries after “also recorded” stand apart in the source; their conditions may differ.

Columns and labels:
[1] = test system: Calloselasma rhodostoma venom; assay: Thrombelastography in human plasma of venom procoagulant activity after isolated exposure of venom to compounds; assay type: biochemical; conditions: venom 5 μg/ml in plasma
Experimental: Thrombelastographic analyses. The volumes of subsequently described plasmatic and other additives summed to a final volume of 360 μl. Samples were composed of 320 μl of plasma; 16.4 μl of PBS, 20 μl of 200 mM CaCl2), and 3.6 μl of PBS or venom mixture, which were pipetted into a disposable cup in a Thrombelastograph® hemostasis system (Model 5000, Haemonetics Inc., Braintree, MA, USA) at 37° C., and then rapidly mixed by moving the cup up against and then away from the plastic pin five times. The following viscoelastic parameters described previously (see, Nielsen V G (2019) J Thromb Thrombolysis 47, 73-79; Gessner G, et al., (2017) Eur J Pharmacol 815, 33-41; Nielsen V G, Wagner M T, Frank N (2020) Int J Mol Sci 21, 2082; Lazić D, Arsenijević A, Puchta R, Bugarčić ŽD, Rilak A (2016) Dalton Trans 45, 4633; Hanif M, et al., (2017) ChemPlusChem 82, 841-847) were measured: time to maximum rate of thrombus generation (TMRTG): this is the time interval (minutes) observed prior to maximum speed of clot growth; maximum rate of thrombus generation (MRTG): this is the maximum velocity of clot growth observed (dynes/cm^2/second); and total thrombus generation (TTG, dynes/cm^2), the final viscoelastic resistance observed after clot formation.
C. rhodostoma. […] The final concentration of this venom in plasma was 5 μg/ml.
(§1) Given the aforementioned, the experimental conditions utilized were: 1) V condition—venom in PBS; 2) Ru(II) condition—venom exposed to CORM-2; 3) Ru(III) condition—venom exposed to RuCl3; 4) Ru(II+III) condition—venom exposed to CORM-2 and RuCl3 simultaneously. After the 5 minute period at room temperature, 3.6 μl of one of these solutions was added to the plasma sample in the plastic thrombelastograph cup.
(§2) The volumes of subsequently described plasmatic and other additives summed to a final volume of 360 μl. Samples were composed of 320 μl of plasma; 16.4 μl of PBS, 20 μl of 200 mM CaCl2), and 3.6 μl of PBS or venom mixture, which were pipetted into a disposable cup in a Thrombelastograph® hemostasis system (Model 5000, Haemonetics Inc., Braintree, MA, USA) at 37° C., and then rapidly mixed by moving the cup up against and then away from the plastic pin five times. The following viscoelastic parameters described previously (see, Nielsen, V. G. J Thromb Thrombolysis 2019, 47, 73-79; Gessner, G.; et al., Eur J Pharmacol 2017, 815, 33-41; Nielsen, V. G.; Wagner, M. T.; Frank, N. Int J Mol Sci 2020, 21, 2082; Lazid, D.; et al., Dalton Trans 2016, 45, 4633; Hanif, M.; et al., ChemPlusChem 2017, 82, 841-847) were measured: time to maximum rate of thrombus generation (TMRTG): this is the time interval (minutes) observed prior to maximum speed of clot growth; maximum rate of thrombus generation (MRTG): this is the maximum velocity of clot growth observed (dynes/cm2/second); and total thrombus generation (TTG, dynes/cm2), the final viscoelastic resistance observed after clot formation.
C. rhodostoma. […] This venom was also exposed to 0 or 100 μM CORM-2 in the presence of 0 or 100 μM carboplatin in another series of experiments. The final concentration of this venom in plasma was 5 μg/ml.

[2] = test system: Heloderma suspectum venom; assay: as above; assay type: biochemical; conditions: venom 10 μg/ml in plasma
Experimental: as §2
H. suspectum. This venom was exposed to 0 or 1 mM CORM-3 in the presence of 0 or 100 μM RuCl3 in PBS for at least 5 minutes at room temperature prior to placement into plasma followed immediately with commencement of thrombelastographic analysis. The final concentration of this venom in plasma was 10 μg/ml.
as §1, with “CORM-2 or CORM-3;” for “CORM-2;”, “CORM-2 or CORM-3” for “CORM-2”, “simultaneously; 5) Pt(II) condition—venom exposed to carboplatin; and 6) Pt+Ru condition—venom exposed to carboplatin and CORM-2.” for “simultaneously.”

[3] = 50 μM CORM-2, 50 μM RuCl3 or both
[4] = 100 μM carboplatin, 100 μM CORM-2 or both
[5] = venom exposed ≥5 min in PBS to 50 μM CORM-2, 50 μM RuCl3 or both
[6] = 100 μM CORM-3, 100 μM RuCl3 or both
[7] = 1 mM CORM-3, 100 μM RuCl3 or both

Compound | maximum rate of thrombus generation (MRTG) [1, 3] | time to maximum rate of thrombus generation (TMRTG) [1, 3] | maximum rate of thrombus generation (MRTG) [1, 4] | time to maximum rate of thrombus generation (TMRTG) [1, 4] | total thrombus generation (TTG) [1, 4] | procoagulant activity of venom [1, 5] | maximum rate of thrombus generation (MRTG) [1, 6] | time to maximum rate of thrombus generation (TMRTG) [1, 6] | procoagulant activity of venom / coagulation kinetic parameters ([2]; venom exposed ≥5 min in PBS to 1 mM CORM-3, 100 μM RuCl3 or both) | procoagulant activity of venom [1, 6] | maximum rate of thrombus generation (MRTG) [2, 7] | time to maximum rate of thrombus generation (TMRTG) [2, 7] | total thrombus generation (TTG) [2, 7]
[C-]#[O+].[C-]#[O+].[C-]#[O+].[C-]#[O+].[C-]#[O+].[C-]#[O+].[Cl][Ru][Cl].[Cl][Ru][Cl] [CORM-2, tricarbonyldichlororuthenium(II) dimer] | decrease | increased; also recorded: significant increase | decrease | significant increase | decrease | significantly decreased; also recorded: procoagulant activity inhibition | – | – | – | – | – | – | –
[Cl][Ru]([Cl])[Cl] [RuCl3, ruthenium(III) chloride] | decrease | increase | – | – | – | significantly diminished | decrease | significant increase | no significant changes in any of the coagulation kinetic parameters | – | – | – | –
Tricarbonylchloro(glycinato)ruthenium [CORM-3] | – | – | – | – | – | – | – | – | – | no significant effect | no change | significant increase | no change
